Laboratory results as given in patent US4455441A, “Attractant termiticidal compounds, compositions and methods of use therefor” (Research Foundation of State University of New York, priority 1982, dated 1984).
Read-outs that look alike come from different tables or passages of the source.

How the values were obtained:
[1] = test system: Reticulitermes flavipes; test: Bioassay of fluoroalkanols (Petri dish assay), termite toxicity; type: in vivo, Reticulitermes flavipes Kollar; details: quantity impregnated in filter pads required to cause 50% mortality at 3 days
Procedure: Test compounds were dissolved in dry diethyl ether or dichloromethane and a 1.0 ml portion of the solution was pipetted onto a Gelman sterile 47-mm cellulose pad (Howard and Haverty, 1979). The ether was allowed to evaporate for 10 min, 1.0 ml of distilled water was added to the pad, and the pad was placed in a tight-sealing Gelman 50-mm plastic Petri dish.
Termites (Reticulitermes flavipes Kollar) were collected from rotten logs and tree stumps on the Stony Brook campus. Colonies were kept in trash cans in an insectary (85% RH, 27° C.) for a period of about 6 months before use in this experiment. The experiments were performed in an incubator at +28° C. Undifferentiated larvae above the third instar ("workers") were used in all toxicity tests. Termites were first shaken loose from the interior of the wood, then transferred using mouth aspirators and with soft forceps. The termites were held on filter paper for 24 hours, twenty healthy termites were added to each dish, and the number of dead which were then removed to prevent cannibalism was recorded at daily intervals.
^c Quantity of fluoro compound impregnated in filter pads required to
cause 50% mortality at 3 days.

[2] = test system: mice; details: based on Pattison (1959), cited from earlier work
[3] = test system: termites; test: Maximum attractiveness (above 50% level); type: in vivo
[4] = test system: termites; test: Trail activity (trail following by termites); type: in vivo; details: at 5 × 10^-6 g/10 c (highest conc. tested)
From the text: ^a Value is minimum quantity (in grams) per 10 cm required to elicit
trailfollowing by a total of 8/20 termites in four trails.
^b Maximum number of termites following at 5 × 10^-6 g/10 c
(highest conc. tested).

[5] = estimate from comparison compound C12 satd.
[6] = estimate from comparison compound C18 satd.
[7] = saturated omega-fluoro compound

Compound	Median Lethal-dose [1]	Estimated LD50 (mice) [2, 5]	Estimated LD50 (mice) [2, 6]	Estimated LD50 (mice) ([2]; estimate from comparison compound C10 satd.)	Maximum attractiveness (above 50% level) [3]	Maximum attractiveness (above 50% level), minimum ([3]; minimum)	Estimated LD50 (mice) [2, 7]	Trail activity, maximum number of termites following [4]
16-fluoro-Z/E 9-hexadecen-1-ol	0.020 mg/dish	1.5 mg/kg	4.0 mg/kg					
OCC/C=C\CCCCCCF [10-fluoro-(Z)-3-decen-1-ol]	.0095 mg/dish			1.0 mg/kg				
OCC/C=C\CCCCCCCCF [12-Fluoro-(Z)-3-dodecen-1-ol]	.0093 mg/dish	1.5 mg/kg			10^-7 9			
OCC/C=C\C/C=C\CCCCCF [12-fluoro-(Z),(Z)-3,6-dodecadien-1-ol]	.012 mg/dish	1.5 mg/kg			10^-7 9	10^-8		
OCCCCCCCC/C=C/CCCCCCF [16-fluoro-Z/E 9-hexadecen-1-ol]	0.024 mg/dish	1.5 mg/kg	4.0 mg/kg					
OCCCCCCCCCCCF [F(CH2)10 CH2 OH]	.062 mg/dish						> 100 mg/kg	6/20
OCCCCCCCCCCCCF [F(CH2)11 CH2 OH, 12-fluorododecan-1-ol]	.0077 mg/dish						1.5 mg/kg	6/20
